Experimental findings from US20250129078A1, “ERBB2 INHIBITORS” (Cogent Biosciences, Inc., priority 2023, published 2025) are described below.

Where a name gives a salt, the structure may show the parent alone.

One assay addresses ErbB2 V777L (Homo sapiens (Human), UniProt P04626, V777L). Kind of assay: ErbB enzyme assay (CisBio HTRF-KinEASE-TK), ErbB2 V777L. It counts as biochemical. The essentials: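 HTRF KinEASE-TK tyrosine-kinase read-out of substrate phosphorylation after a final 1 h at ambient temperature, from the 655/620 nm emission ratio.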
In general terms: Time-resolved FRET reads energy transfer from a long-lived donor to a nearby acceptor.

The target of the next assay is EGFR WT (Homo sapiens (Human), UniProt P00533). Kind of assay: ErbB enzyme assay (CisBio HTRF-KinEASE-TK), EGFR WT. It counts as biochemical. The conditions noted are these: ATP at Km (25 μM), 1 h incubation. The procedure, abridged:
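HTRF KinEASE-TK kinase reactions ran 1 h at ambient temperature with three-fold serial compound dilutions, then were quenched with Sa-XL665 and TK-Ab-Cryptate. After 1 h more, 655/620 nm time-resolved fluorescence gave percent of control; a 4-parameter logistic fit defined IC50 at 50 POC.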

EGFR WT, sequence (P00533 25-1210): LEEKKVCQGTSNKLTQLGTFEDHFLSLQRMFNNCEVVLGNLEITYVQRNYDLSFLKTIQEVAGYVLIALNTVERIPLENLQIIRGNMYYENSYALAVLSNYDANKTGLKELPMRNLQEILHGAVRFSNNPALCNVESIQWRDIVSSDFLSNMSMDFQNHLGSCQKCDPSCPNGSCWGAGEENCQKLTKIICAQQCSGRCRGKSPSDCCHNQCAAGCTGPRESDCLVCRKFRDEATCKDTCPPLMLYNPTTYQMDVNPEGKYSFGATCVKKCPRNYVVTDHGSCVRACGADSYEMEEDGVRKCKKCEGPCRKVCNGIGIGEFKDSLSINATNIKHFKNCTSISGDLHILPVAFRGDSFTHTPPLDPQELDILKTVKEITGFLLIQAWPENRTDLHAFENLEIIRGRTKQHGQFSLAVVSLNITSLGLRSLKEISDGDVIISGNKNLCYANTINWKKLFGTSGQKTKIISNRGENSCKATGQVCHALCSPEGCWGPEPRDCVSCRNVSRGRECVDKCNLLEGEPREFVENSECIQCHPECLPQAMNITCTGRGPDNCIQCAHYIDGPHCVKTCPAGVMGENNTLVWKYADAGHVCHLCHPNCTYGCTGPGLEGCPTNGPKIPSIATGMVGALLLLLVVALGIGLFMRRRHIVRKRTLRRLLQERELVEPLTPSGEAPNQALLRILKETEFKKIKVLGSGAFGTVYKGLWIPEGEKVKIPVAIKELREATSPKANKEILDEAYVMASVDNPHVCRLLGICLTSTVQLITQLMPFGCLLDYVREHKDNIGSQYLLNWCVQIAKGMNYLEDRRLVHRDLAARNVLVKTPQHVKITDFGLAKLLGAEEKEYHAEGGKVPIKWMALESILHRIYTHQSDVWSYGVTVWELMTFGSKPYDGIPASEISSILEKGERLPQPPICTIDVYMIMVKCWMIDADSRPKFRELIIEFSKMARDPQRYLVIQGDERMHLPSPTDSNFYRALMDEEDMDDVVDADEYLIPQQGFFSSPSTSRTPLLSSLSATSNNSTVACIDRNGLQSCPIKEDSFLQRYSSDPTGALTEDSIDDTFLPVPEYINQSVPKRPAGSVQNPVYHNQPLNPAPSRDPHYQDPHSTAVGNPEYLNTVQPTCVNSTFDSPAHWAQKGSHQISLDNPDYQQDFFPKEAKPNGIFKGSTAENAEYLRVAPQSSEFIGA
ErbB2 V777L, sequence (P04626 23-1255 V777L): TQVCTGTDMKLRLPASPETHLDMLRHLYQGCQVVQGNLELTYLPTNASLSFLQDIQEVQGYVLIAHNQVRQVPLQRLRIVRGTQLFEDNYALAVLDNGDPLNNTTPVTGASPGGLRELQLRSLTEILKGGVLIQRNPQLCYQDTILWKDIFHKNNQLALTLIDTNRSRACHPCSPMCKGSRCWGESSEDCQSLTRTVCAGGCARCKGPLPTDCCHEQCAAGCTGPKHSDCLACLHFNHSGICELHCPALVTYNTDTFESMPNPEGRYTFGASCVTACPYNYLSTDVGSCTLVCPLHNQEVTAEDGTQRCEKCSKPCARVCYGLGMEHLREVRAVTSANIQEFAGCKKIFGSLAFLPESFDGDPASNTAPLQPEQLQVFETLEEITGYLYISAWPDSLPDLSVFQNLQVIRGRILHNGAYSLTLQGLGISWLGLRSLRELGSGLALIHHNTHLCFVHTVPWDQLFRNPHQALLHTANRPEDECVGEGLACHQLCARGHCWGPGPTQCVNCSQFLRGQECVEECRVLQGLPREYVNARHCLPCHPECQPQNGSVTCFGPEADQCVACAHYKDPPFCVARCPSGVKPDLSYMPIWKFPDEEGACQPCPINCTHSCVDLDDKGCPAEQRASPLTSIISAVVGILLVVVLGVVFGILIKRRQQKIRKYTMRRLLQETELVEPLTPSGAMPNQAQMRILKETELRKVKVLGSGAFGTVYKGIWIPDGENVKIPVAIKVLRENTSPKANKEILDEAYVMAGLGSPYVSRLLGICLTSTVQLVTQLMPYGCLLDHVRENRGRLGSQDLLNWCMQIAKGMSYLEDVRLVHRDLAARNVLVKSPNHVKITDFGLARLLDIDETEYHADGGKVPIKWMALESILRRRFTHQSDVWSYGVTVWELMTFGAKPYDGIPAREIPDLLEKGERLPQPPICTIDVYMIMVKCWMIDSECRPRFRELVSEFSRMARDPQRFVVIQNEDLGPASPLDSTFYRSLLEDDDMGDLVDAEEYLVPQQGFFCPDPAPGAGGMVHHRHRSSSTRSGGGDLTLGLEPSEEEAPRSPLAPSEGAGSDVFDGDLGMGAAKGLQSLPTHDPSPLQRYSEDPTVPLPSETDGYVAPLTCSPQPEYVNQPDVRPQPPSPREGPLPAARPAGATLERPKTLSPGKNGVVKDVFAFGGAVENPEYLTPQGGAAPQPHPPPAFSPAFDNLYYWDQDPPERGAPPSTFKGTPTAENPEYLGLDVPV

What is called IC50 is the concentration needed to halve the response being measured. `C=CC(=O)N[C@H]1CCCCN(c2ncc3ncnc(Nc4ccc(Oc5ccc6c(c5)nnn6C)c(C)c4F)c3n2)C1` [Compound 173, (S)-N-(1-(8-((2-fluoro-3-methyl-4-((1-methyl-1H-benzo[d][1,2,3]triazol-5-yl)oxy)phenyl)amino)pyrimido[5,4-d]pyrimidin-2-yl)azepan-3-yl)acrylamide]: the half-inhibitory concentration (IC50) against ErbB2 V777L lay in the range of 50 to 100 nM; against EGFR WT it was 100 to 500 nM.

As for `C=CC(=O)N1CCN(c2ncc3ncnc(Nc4ccc(Oc5ccc6c(c5)nnn6C)c(CC)c4)c3n2)CC1` [Compound 114, 1-(4-(8-((3-ethyl-4-((1-methyl-1H-benzo[d][1,2,3]triazol-5-yl)oxy)phenyl)amino)pyrimido[5,4-d]pyrimidin-2-yl)piperazin-1-yl)prop-2-en-1-one], the IC50 on ErbB2 V777L and on EGFR WT was 100 to 500 nM throughout.

Consider `C=CC(=O)N1CCN(c2ncc3ncnc(Nc4cc(F)c(Oc5ccc6c(c5)nnn6C)cc4F)c3n2)CC1` [Compound 31, 1-(4-(8-((2,5-difluoro-4-((1-methyl-1H-benzo[d][1,2,3]triazol-5-yl)oxy)phenyl)amino)pyrimido[5,4-d]pyrimidin-2-yl)piperazin-1-yl)prop-2-en-1-one], for which the IC50 on ErbB2 V777L and against EGFR WT was 100 to 500 nM each time.

On to `C=CC(=O)NC1CC=C(c2ccc3ncnc(Nc4ccc(Oc5ccc6c(c5)nnn6C)c(C)c4)c3n2)CC1` (centres unmarked) [Compound 412, N-(4-(4-((3-methyl-4-((1-methyl-1H-benzo[d][1,2,3]triazol-5-yl)oxy)phenyl)amino)pyrido[3,2-d]pyrimidin-6-yl)cyclohex-3-en-1-yl)acrylamide], for which the IC50 against ErbB2 V777L and on EGFR WT was 100 to 500 nM each time.

Turning to `C=CC(=O)N1C[C@H](C)N(c2ncc3ncnc(Nc4ccc(Oc5ccc6c(c5)nnn6C)c(C)c4)c3n2)C[C@@H]1C` [Compound 187, 1-((2S,5S)-2,5-dimethyl-4-(8-((3-methyl-4-((1-methyl-1H-benzo[d][1,2,3]triazol-5-yl)oxy)phenyl)amino)pyrimido[5,4-d]pyrimidin-2-yl)piperazin-1-yl)prop-2-en-1-one], the IC50 fell in the range of 50 to 100 nM against ErbB2 V777L and 100 to 500 nM at EGFR WT.

`C=CC(=O)N1CC2CC(C1)N2c1ncc2ncnc(Nc3ccc(Oc4ccc5c(c4)nnn5C)c(C)c3)c2n1` [Compound 16, 1-(6-(8-((3-methyl-4-((1-methyl-1H-benzo[d][1,2,3]triazol-5-yl)oxy)phenyl)amino)pyrimido[5,4-d]pyrimidin-2-yl)-3,6-diazabicyclo[3.1.1]heptan-3-yl)prop-2-en-1-one]: the IC50 against ErbB2 V777L and at EGFR WT was 100 to 500 nM throughout.

Take `C=CC(=O)N1CCN(c2ccc3ncnc(Nc4ccc(Oc5ccc6c(c5)nnn6C)c(C)c4)c3n2)C[C@@H]1C1CC1` [Compound 250, (S)-1-(2-cyclopropyl-4-(4-((3-methyl-4-((1-methyl-1H-benzo[d][1,2,3]triazol-5-yl)oxy)phenyl)amino)pyrido[3,2-d]pyrimidin-6-yl)piperazin-1-yl)prop-2-en-1-one]: the IC50 at ErbB2 V777L is 100 to 500 nM; against EGFR WT, 500 to 1000 nM.

For `C=CC(=O)N1CCN(c2ncc3ncnc(Nc4ccc(Oc5ccc6c(c5)nnn6C)c(C)c4)c3n2)CC[C@@H]1C` [Compound 228, (S)-1-(7-methyl-4-(8-((3-methyl-4-((1-methyl-1H-benzo[d][1,2,3]triazol-5-yl)oxy)phenyl)amino)pyrimido[5,4-d]pyrimidin-2-yl)-1,4-diazepan-1-yl)prop-2-en-1-one], the 50% inhibitory concentration (IC50) on ErbB2 V777L lay in the range of 100 to 500 nM; against EGFR WT it was 500 to 1000 nM.

For the compound `C=CC(=O)N1CC2CN(c3ncc4ncnc(Nc5ccc(Oc6ccc7c(c6)nnn7C)c(C)c5)c4n3)CC2C1` (centres unmarked) [Compound 27, 1-(5-(8-((3-methyl-4-((1-methyl-1H-benzo[d][1,2,3]triazol-5-yl)oxy)phenyl)amino)pyrimido[5,4-d]pyrimidin-2-yl)hexahydropyrrolo[3,4-c]pyrrol-2(1H)-y1)prop-2-en-1-one], the IC50 was 100 to 500 nM against ErbB2 V777L and ≥ 1000 nM against EGFR WT.

Take `C=CC(=O)N1CCN(c2ccc3ncnc(Nc4c(OC)cc(Oc5ccc6c(c5)nnn6C)c(C)c4F)c3n2)C[C@H]1C` [Compound 256, (R)-1-(4-(4-((2-fluoro-6-methoxy-3-methyl-4-((1-methyl-1H-benzo[d][1,2,3]triazol-5-yl)oxy)phenyl)amino)pyrido[3,2-d]pyrimidin-6-yl)-2-methylpiperazin-1-yl)prop-2-en-1-one]: the concentration for half-maximal inhibition (IC50) at ErbB2 V777L and against EGFR WT was 100 to 500 nM in each case.

Take `C=CC(=O)N1CC2(CC(N(C)c3ncc4ncnc(Nc5ccc(Oc6ccc7c(c6)nnn7C)c(C)c5)c4n3)C2)C1` [Compound 124, 1-(6-(methyl(8-((3-methyl-4-((1-methyl-1H-benzo[d][1,2,3]triazol-5-yl)oxy)phenyl)amino)pyrimido [5,4-d]pyrimidin-2-yl)amino)-2-azaspiro[3.3]heptan-2-yl)prop-2-en-1-one]: the 50% inhibitory concentration (IC50) against ErbB2 V777L fell in the range of 50 to 100 nM; against EGFR WT, 100 to 500 nM.

Turning to `C=CC(=O)N1C[C@H](N(C)c2ccc3ncnc(Nc4ccc(Oc5ccc6c(c5)nnn6C)c(C)c4)c3n2)C[C@H]1C` [Compound 266, 1-((2R,4R)-2-methyl-4-(methyl(4-((3-methyl-4-((1-methyl-1H-benzo[d][1,2,3]triazol-5-yl)oxy)phenyl)amino)pyrido[3,2-d]pyrimidin-6-yl)amino)pyrrolidin-1-yl)prop-2-en-1-one], the half-maximal inhibitory concentration (IC50) on ErbB2 V777L fell in the range of 50 to 100 nM; against EGFR WT, 100 to 500 nM.

Turning to `C=CC(=O)N1CC2CC1CN(c1ncc3ncnc(Nc4ccc(Oc5cc(F)c6c(c5)ncn6C)c(C)c4F)c3n1)C2` (centres unmarked) [Compound 147, 1-(3-(8-((2-fluoro-4-((7-fluoro-1-methyl-1H-benzo[d]imidazol-5-yl)oxy)-3-methylphenyl)amino)pyrimido[5,4-d]pyrimidin-2-y1)-3,6-diazabicyclo[3.2.1]octan-6-yl)prop-2-en-1-one], the half-inhibitory concentration (IC50) is 50 to 100 nM against ErbB2 V777L and < 50 nM at EGFR WT.

`C=CC(=O)N(C)CCOc1ncc2ncnc(Nc3ccc(Oc4ccc5c(c4)ncn5C)c(C)c3)c2n1` [Compound 384, N-methyl-N-(2-((8-((3-methyl-4-((1-methyl-1H-benzo[d]imidazol-5-yl)oxy)phenyl)amino)pyrimido[5,4-d]pyrimidin-2-yl)oxy)ethyl)acrylamide]: the IC50 at ErbB2 V777L is 50 to 100 nM; against EGFR WT it was ≥ 1000 nM.

For the compound `C=CC(=O)N1C2CCCC1CC(c1ccc3ncnc(Nc4ccc(Oc5ccc6c(c5)nnn6C)c(C)c4)c3n1)C2` (centres unmarked) [Compound 395, 1-(3-(4-((3-methyl-4-((1-methyl-1H-benzo[d][1,2,3]triazol-5-yl)oxy)phenyl)amino)pyrido[3,2-d]pyrimidin-6-yl)-9-azabicyclo[3.3.1]nonan-9-yl)prop-2-en-1-one trifluoroacetate], the half-maximal inhibitory concentration (IC50) against ErbB2 V777L and against EGFR WT was 100 to 500 nM each time.

For `C=CC(=O)N1CCN(c2ccc3ncnc(Nc4ccc(Oc5ccc6c(c5)nnn6C)c(C)c4)c3n2)CC[C@H]1C` [Compound 356, (R)-1-(7-methyl-4-(4-((3-methyl-4-((1-methyl-1H-benzo[d][1,2,3]triazol-5-yl)oxy)phenyl)amino)pyrido[3,2-d]pyrimidin-6-yl)-1,4-diazepan-1-yl)prop-2-en-1-one], the values for the IC50 at ErbB2 V777L and on EGFR WT were 500 to 1000 nM and ≥ 1000 nM, respectively.

In the case of `C=CC(=O)N1CCN(c2ncc3ncnc(Nc4cc(Cl)c(Oc5ccc6c(c5)nnn6C)cc4F)c3n2)CC1` [Compound 66, 1-(4-(8-((5-chloro-2-fluoro-4-((1-methyl-1H-benzo[d][1,2,3]triazol-5-yl)oxy)phenyl)amino)pyrimido[5,4-d]pyrimidin-2-yl)piperazin-1-yl)prop-2-en-1-one], the IC50 on ErbB2 V777L lay in the range of 50 to 100 nM; at EGFR WT, 100 to 500 nM.

On to `C=CC(=O)N1C2CCC1CN(c1ccc3ncnc(Nc4cc(C)c(Oc5ccc6c(c5)nnn6C)cc4OC)c3n1)C2` [Compound 80, 1-(3-(4-((2-methoxy-5-methyl-4-((1-methyl-1H-benzo[d][1,2,3]triazol-5-yl)oxy)phenyl)amino)pyrido[3,2-d]pyrimidin-6-yl)-3,8-diazabicyclo[3.2.1]octan-8-yl)prop-2-en-1-one], for which the IC50 against ErbB2 V777L and against EGFR WT was 100 to 500 nM throughout.

`C=CC(=O)N[C@H]1CCCCN(c2ccc3ncnc(Nc4ccc(Oc5ccc6c(c5)nnn6C)c(C)c4F)c3n2)C1` [Compound 291, (S)-N-(1-(4-((2-fluoro-3-methyl-4-((1-methyl-1H-benzo[d][1,2,3]triazol-5-yl)oxy)phenyl)amino)pyrido[3,2-d]pyrimidin-6-yl)azepan-3-yl)acrylamide]: the IC50 was 50 to 100 nM on ErbB2 V777L and 100 to 500 nM against EGFR WT.

On to `C=CC(=O)N1CCN(c2ccc3ncnc(Nc4cc(C)c(Oc5ccc6c(c5)ncn6C(F)F)cc4OC)c3n2)C[C@H]1C` [Compound 307, (R)-1-(4-(4-((4-((1-(difluoromethyl)-1H-benzo[d]imidazol-5-yl)oxy)-2-methoxy-5-methylphenyl)amino)pyrido[3,2-d]pyrimidin-6-yl)-2-methylpiperazin-1-yl)prop-2-en-1-one], for which the IC50 on ErbB2 V777L and against EGFR WT was 100 to 500 nM throughout.

As to `C=CC(=O)N(C)C1CCN(c2ncc3ncnc(Nc4ccc(Oc5ccc6c(c5)nnn6C)c(C)c4F)c3n2)C1` (centres unmarked) [Compound 9, N-(1-(8-((2-fluoro-3-methyl-4-((1-methyl-1H-benzo[d][1,2,3]triazol-5-yl)oxy)phenyl)amino)pyrimido [5,4-d]pyrimidin-2-yl)pyrrolidin-3-y1)-N-methylacrylamide], the IC50 against ErbB2 V777L lay in the range of 100 to 500 nM; against EGFR WT, 500 to 1000 nM.

In the case of `C=CC(=O)N1CCN(c2ncc3ncnc(Nc4ccc(Oc5cc6nnn(C)c6c(F)c5C)c(C)c4)c3n2)C[C@H]1C` [Compound 174, (R)-1-(4-(8-((4-((7-fluoro-1,6-dimethyl-1H-benzo[d][1,2,3]triazol-5-yl)oxy)-3-methylphenyl)amino)pyrimido[5,4-d]pyrimidin-2-yl)-2-methylpiperazin-1-yl)prop-2-en-1-one], the IC50 against ErbB2 V777L was 100 to 500 nM; on EGFR WT it was ≥ 1000 nM.
